Measured values reported in patent publication US20240366644A1, “ANTI-INFLAMMATORY APPLICATION OF GINSENOSIDE RD” (priority 2022, published 2024).

Experiments:
[1] = test system: xylene-induced swelling of mouse ears; test: Xylene-induced swelling of mouse ears; type: in vivo, Kunming mice
Experimental: […] KM mice, weighing 18-22 g, were randomly grouped, with ten mice in each group. The groups include a model group, a positive control group (Indomethacin, 10 mg/kg), a ginsenoside Rd low-dose group (5 mg/kg), and a ginsenoside Rd high-dose group (10 mg/kg). After 30 min of gavage administration of mice (the model group was administrated with the equal volume of 0.5% sodium carboxymethylcellulose by gavage), 0.03 ml of xylene was evenly applied to both sides of the right ear of each mouse in each group to cause inflammations on both sides, and the left ear of the mouse was not applied as a control. After 4 h, the mouse was killed by dislocation of cervical vertebra, the two ears of the mouse were cut off along the auricle, round ear slices of the same size (a diameter of 6 mm) were taken at the same position of the left and right ears and weighed respectively, a mass difference of the two ear slices was used as an ear swelling degree, and a swelling inhibition rate was calculated.

[2] = test system: mice infected with COVID-19 Delta virus; test: Lung histopathology of mice infected with COVID-19 Delta virus; type: in vivo, hACE2 transgenic C57BL/6 mice; conditions: number of mice with this degree (four per group); 5 mg/kg gavage once a day, five days
[3] = test system: mice with acute lung injury; test: Inflammatory factors (ELISA) in lung tissue and alveolar lavage fluid of mice with LPS acute lung injury; type: in vivo, Balb/c mice; conditions: 5 mg/kg intraperitoneal 1 h before LPS; 24 h after modeling
Experimental: Balb/c male mice, weighing 20-22 g, were randomly divided into five groups according to body weights, with eight mice in each group: a blank control group (propylene glycol-0.5% carboxymethylcellulose sodium), a model group (LPS, 15 mg/kg), a ginsenoside Rd low-dose group (10 mg/kg), a ginsenoside Rd high-dose group (20 mg/kg), and a Dexamethasone group (5 mg/kg). Mice in each group were intraperitoneally injected; after 1 h of administration, except for the blank control group, the mice in each group were intratracheally instilled with 20 μg of LPS for modeling; and the blank control group was intratracheally instilled with an equal volume of PBS.
After 1 h of administration, a mouse ALI model was established; each mouse was intraperitoneally injected with sodium pentobarbital at 30 mg/kg, anesthetized and fixed on an operating table dorsally; skin preparation was carried out on the neck; the skin was incised to expose the trachea; 20 μg of LPS was instilled into the trachea using a microglass syringe; and then the mouse was gently rotated head up on the operating table, such that the instilled liquid was evenly distributed in the mouse lungs, and the skin incision was sutured.
After 24 h of modeling, anesthetized mice were intraperitoneally injected with sodium pentobarbital at 30 mg/kg; lung tissues of the mice were taken and rinsed repeatedly in pre-cooled normal saline; the lung tissues were blood-removed, wiped with filter paper, weighed, and added with normal saline according to a ratio of 1:9 (W:V=1 g:9 ml); a tissue homogenate was prepared with a homogenization machine under an ice water bath; and a supernatant of mouse lung tissue homogenate was taken.
The mouse was anesthetized, and the trachea was separated; the whole lung was lavaged with 0.5 ml of pre-cooled normal saline, stayed for 1 min, and slowly pumped back with a syringe, and this process was repeated three times; and BLAF was collected, and centrifuged for 15 min at 4° C. and 1600 rpm/min.
In strict accordance with the operating instructions of an enzyme-linked immunosorbent assay kit (ELISA), the contents of TNF-α, IL-1β, IL-6 and IL-18 in the supernatant of mouse lung tissue homogenate and the BLAF supernatant were detected.

[4] = test system: COVID-19 Delta virus-infected mice; test: IL-1β and MCP-1 expression (RT-qPCR) in lung homogenates of COVID-19 Delta virus-infected mice; type: in vivo, hACE2 transgenic C57BL/6 mice; conditions: mRNA, blank group 1.00; 5 mg/kg gavage; Day 5 of infection
[5] = test system: Chronic Obstructive Pulmonary Disease in Rats; test: Lung pathomorphology of rats with chronic obstructive pulmonary disease; type: in vivo, SD rats; conditions: po, 2.5 mg/kg
[6] = test system: Chronic Obstructive Pulmonary Disease in Rats; test: Serum TNF-α and IL-8 in rats with chronic obstructive pulmonary disease (LPS + smoking); type: in vivo, SD rats; conditions: 2.5 mg/kg gavage
Experimental: After adaptive feeding (20-25° C., a humidity of 50-60%) for 1 week, the rats were randomly divided into a blank group, a model group, a positive control group, a ginsenoside Rd high-dose group, and a ginsenoside Rd low-dose group, with ten rats in each group.
Model group: on the Day 1 and Day 14, each rat was intraperitoneally injected with 10% chloral hydrate (300 mg/kg) for anesthesia; the head was fixed in a low position; the glottis was exposed; lipopolysaccharide was quickly injected into the trachea; and the rat was kept upright, and swung left and right for 10-20 s, such that the lipopolysaccharide was evenly distributed in the two lungs. On the Days 2-13, and 15-28, the lungs were smoked in a closed organic glass box for 30 min every day, with 15 cigarettes per day.
Positive control group: the animal was anesthetized, and intratracheally injected with lipopolysaccharide, wherein smoking conditions and time were the same as those of the model group; and after tracheal injection of lipopolysaccharide for two weeks, the animal was administrated with Simvastatin by gavage (2.5 mg/kg), and killed after six weeks, and serum was collected.
In accordance with the instructions, the levels of TNF-α and IL-8 in the serum were detected by enzyme-linked immunosorbent assay. The data was expressed as x±s, p<0.05, which meant that it was statistically significant.

[7] = 10 mg/kg gavage 30 min before xylene, 4 h after xylene

COc1ccc2c(c1)c(CC(=O)O)c(C)n2C(=O)c1ccc(Cl)cc1 [Indomethacin, reference compound]
Ear mass difference [1, 7]: 10.87 ± 0.53 mg | Swelling degree [1, 7]: 6.48 ± 1.89 (mg) (%) | inhibition at 10 mg/kg ([1]; Mus musculus, po, ear swelling, 10 mg/kg gavage, read-out: Inhibition rate): 40.3%

C[C@@H]1C[C@H]2[C@@H]3CCC4=CC(=O)C=C[C@]4(C)[C@@]3(F)[C@@H](O)C[C@]2(C)[C@@]1(O)C(=O)CO [Dexamethasone, reference compound]
Interstitial pneumonia Mild [2]: 3 | Interstitial pneumonia Moderate [2]: 1 | Interstitial pneumonia Severe [2]: 0 | Pulmonary hemorrhage Mild [2]: 3 | Pulmonary hemorrhage Moderate [2]: 1 | Pulmonary hemorrhage Severe [2]: 0 | IL-1β in alveolar lavage fluid [3]: 58.56 ± 16.24 ng/L | IL-1β in lung tissue [3]: 48.76 ± 12.76 ng/L | IL-6 in alveolar lavage fluid [3]: 36.89 ± 6.16 ng/L | IL-6 in lung tissue [3]: 49.73 ± 16.08 ng/L | IL-18 in alveolar lavage fluid [3]: 56.38 ± 9.40 ng/L | IL-18 in lung tissue [3]: 49.06 ± 15.41 ng/L | TNF-α in alveolar lavage fluid [3]: 222.58 ± 60.91 ng/L | TNF-α in lung tissue [3]: 58.64 ± 10.65 ng/L | IL-1β expression level in lung homogenate [4]: 9.26 ± 10.27 | MCP-1 expression level in lung homogenate [4]: 6.27 ± 8.20

CCC(C)(C)C(=O)O[C@H]1C[C@@H](C)C=C2C=C[C@H](C)[C@H](CC[C@@H]3C[C@@H](O)CC(=O)O3)[C@H]21 [Simvastatin, reference compound]
Epithelial cell necrosis Mild [5]: 7 | Epithelial cell necrosis Moderate [5]: 3 | Epithelial cell necrosis Severe [5]: 0 | Interstitial inflammatory cell infiltration Mild [5]: 6 | Interstitial inflammatory cell infiltration Moderate [5]: 4 | Interstitial inflammatory cell infiltration Severe [5]: 0 | IL-8 in serum [6]: 22.65 ± 11.56 | TNF-α in serum [6]: 11.71 ± 13.27
